From US11833154B2, “Methods of treatment of myeloproliferative neoplasm” (priority 2017, dated 2023) come the findings set out here.

SMILES strings stand for the structures.

The test system of assay [1] is JAK2/IDH2-mutant MPN. In words: Therapeutic assay: spleen weight, hematocrit and leukocyte count at sacrifice. Type of assay: in vivo, mice. As to conditions: IDH2^R140Q JAK2^V617F bone marrow recipients, four weeks of treatment; vehicle mean 289.1. As to the method: (§1) Dissected femurs and tibias were isolated. Bone marrow was flushed into PBS+2% BSA or RPMI+10% FCS using a syringe or by centrifuge spin. Spleens were isolated and single cell suspensions made by mechanical disruption using glass slides. All harvested cells were passed through a […] strainer. Red blood cells (RBCs) were lysed in ammonium chloride-potassium bicarbonate lysis buffer for 10 min on ice. Cells were transplanted by via tail vein injection into lethally irradiated (2×550 Rad) CD45.1 host mice. For noncompetitive transplants, 1×10^6 total cells were transplanted; for competitive transplants including drug studies, 1×10^6 total donor cells were injected in a mixture with 1×10^6 cells from a congenic CD45.1 donor; for cell of origin transplants, injection number was determined based on the lowest yield after sort to inject approximately 100,000 MPP or 300 LT-HSC with 300,000 whole bone marrow cells from a CD45.1 donor.

Assay [2] deals with JAK2/IDH2-mutant MPN/AML cells. Briefly: FACS of cell surface markers on cultured human colony cells. As to conditions: cultured patient cells, 400 nM. Type of assay: cell-based. As to the method:
(§2) Frozen or fresh PBMCs were plated in Methocult H4435 (Stem Cell) with penicillin and streptomycin in triplicate wells. MPN patient cells were plated after enrichment using CD34 Microbeads (Miltenyi) at 1,000 cells per well; AML patient cells were plated without enrichment at 100,000 cells per well.
To observe monocytic and granulocytic differentiation, antibodies against CD117/cKit, CD34, CD38, CD15 (HI98, eBioscience), CD14 (HCD14, BioLegend), and CD16 (3G8, BioLegend) were used.

Assay [3] relates to JAK2/IDH2-mutant MPN. Briefly: Bone marrow stem and progenitor populations by FACS in treated recipients. Type of assay: in vivo, mice. As to conditions: for Erythrocyte progenitors: Pre-erythrocytes / Pre-MegE populations / Erythrocyte progenitors: CFU-E / Erythrocyte progenitors: Pre-CFU-E: bone marrow FACS; for Erythrocyte progenitors: Pre-erythrocytes / Pre-MegE populations / Erythrocyte progenitors: CFU-E / Erythrocyte progenitors: Pre-CFU-E / Total LSK number in the bone marrow: four weeks of treatment; for Erythrocyte progenitors: Pre-erythrocytes / Pre-MegE populations: vehicle 0.1757; for Erythrocyte progenitors: CFU-E: vehicle 1.621; for Erythrocyte progenitors: Pre-CFU-E: vehicle mean 0.5189%; for Total LSK number in the bone marrow: double mutant mice, vehicle mean 57.19×10^3. The protocol: as §1
(§3) Cells were stained with antibodies in FACS Buffer (2% Bovine Serum Albumin in phosphate-buffered saline (PBS)) for 30 min on ice. Donor and support chimerism was assessed using antibodies against CD45.1 (Clone A20, Biolegend) and CD45.2 (Clone 104, BioLegend).
Cells were also stained with antibodies specific to c-Kit/CD117 (clone 2B8, BioLegend), Sca-1 (clone D7, BioLegend), FcγRII/III/CD16/32 (clone 2.4G2, eBiosciences) and CD34 (clone RAM34, eBiosciences) or SLAM/CD150 (TC15-12F12.2, BioLegend) and CD48 (HM48-1, eBioscience). To assess mature cell lineages we used a combination of antibodies against Mac1, Gr-1, B220, CD3, cKit/CD117, CD45.1, and CD45.2.
To assess erythroid and megakaryocyte progenitors we stained unlysed tissues with a lineage cocktail including CD4, CD8, B220/CD45R, Mac1/CD11b, Gr-1, IL7R/CD127 (A7R34, BioLegend), CD49b (DX5, BioLegend). Antibodies were also used against c-Kit/CD117, Sca-1, SLAM/CD150, CD48, FcγRII/III/CD16/32, CD41 (eBioMWReg30, eBioscience), CD105 (MJ7/18, BioLegend), CD71 (RI7217, BioLegend), and Ter119 and gated as described by Pronk et al., Elucidation of the Phenotypic, Functional, and Molecular Topography of a Myeloerythroid Progenitor Cell Hierarchy, Cell Stem Cell 2007; 1:428-42.
(In general: Flow cytometry measures light scatter and fluorescence of single cells or particles in a stream.)

Assay [4] deals with IDH2^R140Q JAK2^V617F MPN cells (CD45.2^+). In words: Paired donor chimerism in peripheral blood before and after treatment. The assay is classed as in vivo, mice. Particulars: four weeks of treatment, vehicle +4.236. As to the method:
as §1, §3

The test system of assay [5] is IDH2^R140Q JAK2^V617F mutant LSK. In words: RNA-sequencing of donor-derived CD45.2 LSK from treated mice (GSEA). Type of assay: in vivo. As to the method: Before cell of origin transplants, sorting was performed on bone marrow with enrichment for cKit/CD117-positive cells using CD117 MicroBeads (Miltenyi). For expression analysis, sorting was performed on bone marrow that had been depleted of mature cells using Progenitor Cell Enrichment Kit ([…] Technologies).
CD45.2+ LSK cells were sorted into ice cold FACS Buffer, pelleted, and stored in Triazol until extraction of RNA using phenol-chlorophorm. The library was produced using SMARTer amplification (Clontech) amplify and create the library. Illumina sequencing was performed using Paired-End 50 bp at 40×10^6 reads per sample.

The test system of assay [6] is samples from patients with MPN and Post-MPN AML with IDH2^R140Q and JAK2^V617F mutations. Briefly: Human colony forming (methylcellulose) assay. The assay is classed as cell-based. Particulars: Methocult H4435, 400 nM. The protocol:
Approval was obtained from the Institutional Review Board at Memorial Sloan-Kettering Cancer Center. Tissues were collected in partnership with the Human Oncology Tissue Bank, and all patients provided informed consent. Fresh peripheral blood was collected into heparinized collection tubes, and separation of peripheral blood mononuclear cells (PBMC) was performed using hetastarch and a Ficoll gradient with subsequent red blood cell lysis.
as §2

The next assay deals with JAK2/IDH2 mutant MPN. Briefly: Histology of bone marrow and spleen of treated recipients. Type of assay: in vivo, mice. As to the method: Pathology was obtained after fixation in 4% paraformaldehyde (PFA); blood smears and bone marrow cytospins were performed on the day of sacrifice. Sections were stained with hematoxylin and eosin stain or Wright Giemsa stain as appropriate. CD34+ staining was performed using CD34, Rat Monoclonal Antibody Performed on a Leica Bond™ RX using the Bond™ Polymer Refine Detection Kit (Cat. No. DS9800). The sections stained with CD34 (Abcam, Cat. Ab8158 diluted 1:50) were pre-treated using heat mediated antigen retrieval with Citrate, pH6 (Leica Biosystem Epitope Retrieval 1, Cat. No. AR9961) for 20 min. DAB was used as the chromogen, counterstained with hematoxylin and mounted.

Assay [7] concerns JAK2/IDH2-mutant MPN cell metabolism. In words: LC/MS metabolite analysis of bone marrow aspirates from treated mice. The assay is classed as in vivo, mouse. As to the method: External mass calibration was performed using the standard calibration mixture every 7 days. […] Buffer A was 20 mM ammonium carbonate, 0.1% ammonium hydroxide; buffer B was acetonitrile. […] The sheath gas flow was set to 40 units, the auxiliary gas flow was set to 15 units, and the sweep gas flow was set to 1 unit. […] Relative quantitation of polar metabolites was performed with XCalibur QuanBrowser 2.2 (Thermo Fisher Scientific) using a 5 ppm mass tolerance and referencing an in-house library of chemical standards.

The subject of assay [8] is IDH2^R140Q JAK2^V61F mutant cells. Briefly: Serum 2HG levels in treated transplant recipient mice (LC-MS). Particulars: mice engrafted with IDH2^R140Q JAK2^V617F cells; oral AG221 40-100 mg/kg, ruxolitinib 60 mg per kg, BID; at sacrifice after four weeks; vehicle mean 1874. Type of assay: in vivo. As to the method:
as §1
2HG was extracted from serum using 80% aqueous methanol, as described by Lu et al., […]. […] All extracts were spun at 13,000 rpm at 4° C. to remove precipitate, dried at room temperature, and stored at −80° C.

Setting [9] is: CD45.2 LSK RNA-seq, GSEA, p<1e-4.
Setting [10] is: stem cells of treated mice versus wild type, Hallmark GSEA.

As to `CC(C)(O)CNc1nc(Nc2ccnc(C(F)(F)F)c2)nc(-c2cccc(C(F)(F)F)n2)n1` [AG221, 2-methyl-1-[(4-[6-(trifluoromethyl)pyridin-2-yl]-6-{[2-(trifluoromethyl)pyridin-4-yl]amino}-1,3,5-triazin-2-yl)amino]propan-2-ol], the “Splenomegaly: spleen weight (mean)” value in the assay with JAK2/IDH2-mutant MPN [1] amounted to 188.3 mg. Moreover, in [2], the “Differentiation markers CD235a / CD14” value is given as “upregulation” and the “Surface expression of immature marker cKit/CD117 / proportion of c-Kit positive colonies” value is “reduced”. In the assay with JAK2/IDH2-mutant MPN [3], the “Erythrocyte progenitors: Pre-erythrocytes” value is on record as 0.03906, the Pre-MegE populations came to 0.03906, the “Erythrocyte progenitors: CFU-E” value came out at 0.8251 and the “Erythrocyte progenitors: Pre-CFU-E” value was 0.1913%. Also, in the assay on JAK2/IDH2-mutant MPN [3], the “Total LSK number in the bone marrow” value is 36.43×10^3. In addition, in the assay with JAK2/IDH2-mutant MPN [3] (donor-derived cells, number of CD45.1 myeloid progenitors not affected), the “Proportion of CD45.2 myeloid progenitor populations” value was “reduced”. Also, in assay [4], the “Mutant donor chimerism, mean change pre- and post-treatment” value is listed as −6.291%. In assay [5] (setting [9]), the “NES, downregulated genes of the combination-therapy signature also altered by monotherapy” value is listed as −2.3 and the “NES, upregulated genes of the combination-therapy signature also reversed by monotherapy” value is recorded as “+1.9”. In addition, in [5] (setting [10]), the “IL6/JAK/STAT3 gene expression signature” value is “enrichment for expression of genes in this pathway were seen”; the Interferon gamma signatures entry is reported as “significantly enriched”; the “Oncogenic signatures (cMYC, mTOR, KRAS)” value is “highly significant enrichment”. Further, in assay [6], the BFU-E colonies result is on record as “presence of BFU-E colonies”. In addition, the “Colony number / colony output” value in [6] (DMSO controls) is “increase in colony number”. The “Aberrant CD34 expression in megakaryocytes” value in the assay on JAK2/IDH2 mutant MPN (CD34 immunohistochemical stain of bone marrow) was “resulted the aberrant CD34 expression seen in megakaryocytes”. Also, the “Expansion of spleen blasts” value in the assay with JAK2/IDH2 mutant MPN (histology, compared with untreated JAK2/IDH2 mutant MPN) is given as “eliminated the expansion of spleen blasts”. For the same compound, in assay [7] (after 10 days of treatment), the “2HG levels in bone marrow aspirates” value is “Reduction”. For the same compound, the “Levels of Kreb's cycle intermediates (α-ketoglutarate, citrate, succinate, fumarate, malate)” value in assay [7] (bone marrow aspirates, 10 days of treatment, p<0.0252) is on record as “reduced”. For the same compound, the “Serum 2HG levels (mean)” value in assay [8] was found to be 744.4 ng/mL.

As to `N#CC[C@H](C1CCCC1)n1cc(-c2ncnc3[nH]ccc23)cn1` [ruxolitinib, reference compound], the “Splenomegaly: spleen weight (mean)” value in the assay with JAK2/IDH2-mutant MPN [1] came out at 101.3 mg. Also, in the assay with JAK2/IDH2-mutant MPN [3], the “Erythrocyte progenitors: Pre-erythrocytes” value was determined as 0.08063, the Pre-MegE populations turned out to be 0.08063, the “Erythrocyte progenitors: CFU-E” value is listed as 0.5553 and the “Erythrocyte progenitors: Pre-CFU-E” value is listed as 0.1103%. In addition, the “Total LSK number in the bone marrow” value in the assay on JAK2/IDH2-mutant MPN [3] was 20.73×10^3. Besides, the “Mutant donor chimerism, mean change pre- and post-treatment” value in assay [4] is “+3.256%”. Further, the “NES, downregulated genes of the combination-therapy signature also altered by monotherapy” value in assay [5] (setting [9]) is −2.2. Besides, in assay [8], the “Serum 2HG levels (mean)” value was 1233 ng/mL.
